Assay results reported in patent US20180370927A1, “MICROBIOCIDAL OXADIAZOLE DERIVATIVES” (SYNGENTA PARTICIPATIONS AG, priority 2015, published 2018).

Experiments:
[1] = test system: Puccinia recondita f. Sp. Tritici; experiment: Puccinia recondita f. sp. tritici / wheat / leaf disc preventative (brown rust); format: in vivo; settings: foliar, 200 ppm in the applied formulation, wheat leaf segments, preventative, assessed 7 to 9 days after application, read-out: disease control compared to untreated control leaf disks
Method in brief: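 Wheat cv. Kanzler leaf segments on agar sprayed with formulated compound in water, inoculated with rust spores 1 day later. Incubated at 19° C, 75% rh, 12 h light/12 h dark; percent disease control versus untreated scored 7 to 9 days after application; tested at 200 ppm.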

[2] = test system: Puccinia recondita f. Sp. Tritici; experiment: Puccinia recondita f. sp. tritici / wheat / leaf disc curative (brown rust); format: in vivo; settings: foliar, 200 ppm in the applied formulation, wheat leaf segments, curative (applied 1 day after inoculation), assessed 6 to 8 days after application, read-out: disease control compared to untreated control leaf disks
Method in brief: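 Curative treatment: formulated compound in water was applied 1 day post-inoculation to spore-inoculated wheat cv. Kanzler segments held on agar. Segments stayed at 19° C and 75% relative humidity (12 h photoperiod after application), and disease control relative to untreated checks was assessed 6 to 8 days later.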

Phakopsora pachyrhizi = Phakopsora pachyrhizi / soybean / leaf disc preventative (Asian soybean rust); format: in vivo; settings: foliar, 200 ppm in the applied formulation, soybean leaf disks, assessed 12 to 14 days after application, read-out: disease control compared to untreated control leaf disks
Description: Leaf disks or leaf segments of various plant species are cut from plants grown in a greenhouse. The cut leaf disks or segments are placed in multiwell plates (24-well format) onto water agar. The leaf disks are sprayed with a test solution before (preventative) or after (curative) inoculation. Compounds to be tested are prepared as DMSO solutions (max. 10 mg/mL) which are diluted to the appropriate concentration with 0.025% Tween20 just before spraying. The inoculated leaf disks or segments are incubated under defined conditions (temperature, relative humidity, light, etc.) according to the respective test system. A single evaluation of disease level is carried out 3 to 14 days after inoculation, depending on the pathosystem. Percent disease control relative to the untreated check leaf disks or segments is then calculated.
Example 3: Fungicidal Activity Against Phakopsora pachyrhizi/Soybean/Leaf Disc Preventative (Asian Soybean Rust)
Soybean leaf disks are placed on water agar in multiwell plates (24-well format) and sprayed with the formulated test compound diluted in water. One day after application leaf discs are inoculated by spraying a spore suspension on the lower leaf surface. After an incubation period in a climate cabinet of 24-36 hours in darkness at 20° C. and 75% relative humidity leaf disc are kept at 20° C. with 12 hours light/day and 75% relative humidity. The activity of a compound is assessed as percent disease control compared to untreated when an appropriate level of disease damage appears in untreated check leaf disks (12 to 14 days after application).
The following compounds at 200 ppm in the applied formulation give at least 80% disease control in this test when compared to untreated control leaf disks under the same conditions, which show extensive disease development.

[3] = test system: Glomerella lacenarium (Colletotrichum lacenarium); experiment: Glomerella lacenarium (Colletotrichum lacenarium) liquid culture / cucumber / preventative (anthracnose); format: cell-based; settings: 20 ppm in the applied formulation, liquid culture in PDB, 24° C., 3 to 4 days after application, read-out: disease control (inhibition of growth, photometric) compared to untreated control
Method in brief: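 At 20 ppm in the applied formulation, compounds were mixed with fungal spores in potato dextrose broth and held at 24° C. After 3–4 days, photometric growth measurement gave percent antifungal activity relative to untreated control.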

CC(C)(C)NC(=O)C(=O)NCc1ccc(-c2noc(C(F)(F)F)n2)cc1 [Compound 4.56, N′-tert-butyl-N-[[4-[5-(trifluoromethyl)-1,2,4-oxadiazol-3-yl]phenyl]methyl] oxamide]
≥ 80%: pest or weed control at 200 ppm [1] | pest or weed control at 200 ppm [2] | pest or weed control at 200 ppm (Phakopsora pachyrhizi) | inhibition at 20 ppm [3]

CCC(=O)C(=O)N(CCO)Cc1ccc(-c2noc(C(F)(F)F)n2)cc1 [Compound 1.33, N-(2-hydroxyethyl)-2-oxo-N-[[4-[5-(trifluoromethyl)-1,2,4-oxadiazol-3-yl]phenyl]methyl]butanamide]
≥ 80%: pest or weed control at 200 ppm [1] | pest or weed control at 200 ppm [2] | pest or weed control at 200 ppm (Phakopsora pachyrhizi) | inhibition at 20 ppm [3]

CCONC(=O)C(=O)NCc1ccc(-c2noc(C(F)(F)F)n2)cc1 [Compound 4.55, N′-ethoxy-N-[[4-[5-(trifluoromethyl)-1,2,4-oxadiazol-3-yl]phenyl]methyl] oxamide]
≥ 80%: pest or weed control at 200 ppm [1] | pest or weed control at 200 ppm [2] | pest or weed control at 200 ppm (Phakopsora pachyrhizi) | inhibition at 20 ppm [3]

O=C(NCc1c(F)cc(-c2noc(C(F)(F)F)n2)cc1F)C(=O)c1cccs1 [Compound 1.70, N-[[2,6-difluoro-4-[5-(trifluoromethyl)-1,2,4-oxadiazol-3-yl]phenyl]methyl]-2-oxo-2-(2-thienyl)acetamide]
≥ 80%: pest or weed control at 200 ppm [1] | pest or weed control at 200 ppm [2] | pest or weed control at 200 ppm (Phakopsora pachyrhizi) | inhibition at 20 ppm [3]

CN(C)C(=O)C(=O)N(C)Cc1ccc(-c2noc(C(F)(F)F)n2)cc1 [Compound 4.29, N,N,N′-trimethyl-N'-[[4-[5-(trifluoromethyl)-1,2,4-oxadiazol-3-yl]phenyl]methyl] oxamide]
≥ 80%: pest or weed control at 200 ppm [1] | pest or weed control at 200 ppm [2] | pest or weed control at 200 ppm (Phakopsora pachyrhizi) | inhibition at 20 ppm [3]

CCC(C)N(Cc1ccc(-c2noc(C(F)(F)F)n2)cc1)C(=O)C(C)=O (stereo not drawn) [Compound 1.12, 2-oxo-N-sec-butyl-N-[[4-[5-(trifluoromethyl)-1,2,4-oxadiazol-3-yl]phenyl]methyl]propanamide]
≥ 80%: pest or weed control at 200 ppm [1] | pest or weed control at 200 ppm [2] | pest or weed control at 200 ppm (Phakopsora pachyrhizi) | inhibition at 20 ppm [3]

CO/N=C(\C)C(=O)N(Cc1ccc(-c2noc(C(F)(F)F)n2)cc1)OC [Compound 2.10, (2E)-N-methoxy-2-methoxyimino-N-[[4-[5-(trifluoromethyl)-1,2,4-oxadiazol-3-yl]phenyl]methyl] propanamide]
≥ 80%: pest or weed control at 200 ppm [1] | pest or weed control at 200 ppm [2] | pest or weed control at 200 ppm (Phakopsora pachyrhizi) | inhibition at 20 ppm [3]

CC(C)(C)C(=O)C(=O)NCc1ccc(-c2noc(C(F)(F)F)n2)c(F)c1 [Compound 1.45, N-[[3-fluoro-4-[5-(trifluoromethyl)-1,2,4-oxadiazol-3-yl]phenyl]methyl]-3,3-dimethyl-2-oxo-butanamide]
≥ 80%: pest or weed control at 200 ppm [1] | pest or weed control at 200 ppm [2] | pest or weed control at 200 ppm (Phakopsora pachyrhizi) | inhibition at 20 ppm [3]

CC(C)C(=O)C(=O)N(C)Cc1ccc(-c2noc(C(F)(F)F)n2)cc1 [Compound 1.95, N,3-dimethyl-2-oxo-N-[[4-[5-(trifluoromethyl)-1,2,4-oxadiazol-3-yl]phenyl]methyl]butanamide]
≥ 80%: pest or weed control at 200 ppm [1] | pest or weed control at 200 ppm [2] | pest or weed control at 200 ppm (Phakopsora pachyrhizi) | inhibition at 20 ppm [3]

CN(C)C(=O)C(=O)NCc1ccc(-c2noc(C(F)(F)F)n2)c(F)c1 [Compound 4.93, N-[[3-fluoro-4-[5-(trifluoromethyl)-1,2,4-oxadiazol-3-yl]phenyl]methyl]-N',N'-dimethyl-oxamide]
≥ 80%: pest or weed control at 200 ppm [1] | pest or weed control at 200 ppm [2] | pest or weed control at 200 ppm (Phakopsora pachyrhizi) | inhibition at 20 ppm [3]

O=C(NCc1ccc(-c2noc(C(F)(F)F)n2)cc1F)C(=O)c1cccs1 [Compound 1.39, N-[[2-fluoro-4-[5-(trifluoromethyl)-1,2,4-oxadiazol-3-yl]phenyl]methyl]-2-oxo-2-(2-thienyl)acetamide]
≥ 80%: pest or weed control at 200 ppm [1] | pest or weed control at 200 ppm [2] | pest or weed control at 200 ppm (Phakopsora pachyrhizi) | inhibition at 20 ppm [3]

CCN(Cc1ccc(-c2noc(C(F)(F)F)n2)cc1)C(=O)C(=O)N(C)OC [Compound 4.106, N′-ethyl-N-methoxy-N-methyl-N′-[[4-[5-(trifluoromethyl)-1,2,4-oxadiazol-3-yl]phenyl]methyl] oxamide]
≥ 80%: pest or weed control at 200 ppm [1] | pest or weed control at 200 ppm [2] | pest or weed control at 200 ppm (Phakopsora pachyrhizi) | inhibition at 20 ppm [3]

CON(Cc1ccc(-c2noc(C(F)(F)F)n2)cc1F)C(=O)C(=O)c1ccco1 [Compound 1.83, N-[[2-fluoro-4-[5-(trifluoromethyl)-1,2,4-oxadiazol-3-yl]phenyl]methyl]-2-(2-furyl)-N-methoxy-2-oxo-acetamide]
≥ 80%: pest or weed control at 200 ppm [1] | pest or weed control at 200 ppm [2] | pest or weed control at 200 ppm (Phakopsora pachyrhizi) | inhibition at 20 ppm [3]

CC(C)C(=O)C(=O)N(Cc1ccc(-c2noc(C(F)(F)F)n2)cc1)C1CC1 [Compound 1.97, N-cyclopropyl-3-methyl-2-oxo-N-[[4-[5-(trifluoromethyl)-1,2,4-oxadiazol-3-yl]phenyl]methyl]butanamide]
≥ 80%: pest or weed control at 200 ppm [1] | pest or weed control at 200 ppm [2] | pest or weed control at 200 ppm (Phakopsora pachyrhizi) | inhibition at 20 ppm [3]

O=C(NCc1c(F)cc(-c2noc(C(F)(F)F)n2)cc1F)C(=O)c1ccco1 [Compound 1.88, N-[[2,6-difluoro-4-[5-(trifluoromethyl)-1,2,4-oxadiazol-3-yl]phenyl]methyl]-2-(2-furyl)-2-oxo-acetamide]
≥ 80%: pest or weed control at 200 ppm [1] | pest or weed control at 200 ppm [2] | pest or weed control at 200 ppm (Phakopsora pachyrhizi) | inhibition at 20 ppm [3]

O=C(C(=O)N(Cc1ccc(-c2noc(C(F)(F)F)n2)cc1)C1CC1)C1CC1 [Compound 1.92, N,2-dicyclopropyl-2-oxo-N-[[4-[5-(trifluoromethyl)-1,2,4-oxadiazol-3-yl]phenyl]methyl]acetamide]
≥ 80%: pest or weed control at 200 ppm [1] | pest or weed control at 200 ppm [2] | pest or weed control at 200 ppm (Phakopsora pachyrhizi) | inhibition at 20 ppm [3]

CCC(=O)C(=O)NCc1ccc(-c2noc(C(F)(F)F)n2)cc1 [Compound 1.53, 2-oxo-N-[[4-[5-(trifluoromethyl)-1,2,4-oxadiazol-3-yl]phenyl]methyl]butanamide]
≥ 80%: pest or weed control at 200 ppm [1] | pest or weed control at 200 ppm [2] | pest or weed control at 200 ppm (Phakopsora pachyrhizi) | inhibition at 20 ppm [3]

CON(C)C(=O)C(=O)N(C)Cc1ccc(-c2noc(C(F)(F)F)n2)cc1 [Compound 4.104, N′-methoxy-N,N′-dimethyl-N-[[4-[5-- (trifluoromethyl)-1,2,4-oxadiazol-3-yl]phenyl]methyl] oxamide]
≥ 80%: pest or weed control at 200 ppm [1] | pest or weed control at 200 ppm [2] | pest or weed control at 200 ppm (Phakopsora pachyrhizi) | inhibition at 20 ppm [3]

CCC(=O)C(=O)N(Cc1ccc(-c2noc(C(F)(F)F)n2)cc1)C1CC1 [Compound 1.100, N-cyclopropyl-2-oxo-N-[[4-[5-(trifluoromethyl)-1,2,4-oxadiazol-3-yl]phenyl]methyl]butanamide]
≥ 80%: pest or weed control at 200 ppm [1] | pest or weed control at 200 ppm [2] | pest or weed control at 200 ppm (Phakopsora pachyrhizi) | inhibition at 20 ppm [3]

O=C(NCc1ccc(-c2noc(C(F)(F)F)n2)c(F)c1)C(=O)c1cccs1 [Compound 1.44, N-[[3-fluoro-4-[5-(trifluoromethyl)-1,2,4-oxadiazol-3-yl]phenyl]methyl]-2-oxo-2-(2-thienyl)acetamide]
≥ 80%: pest or weed control at 200 ppm [1] | pest or weed control at 200 ppm [2] | pest or weed control at 200 ppm (Phakopsora pachyrhizi) | inhibition at 20 ppm [3]

CN(C)C(=O)C(=O)NCc1ccc(-c2noc(C(F)(F)F)n2)cc1F [Compound 4.92, N-[[2-fluoro-4-[5-(trifluoromethyl)-1,2,4-oxadiazol-3-yl]phenyl]methyl]-N',N'-dimethyl-oxamide]
≥ 80%: pest or weed control at 200 ppm [1] | pest or weed control at 200 ppm [2] | pest or weed control at 200 ppm (Phakopsora pachyrhizi) | inhibition at 20 ppm [3]
